In patent publication US7192906B2, “Substituted pyrazole derivatives, production process thereof, and herbicide compositions containing the derivatives” (SDS Biotech K.K., priority 2001, dated 2007):

How the values were obtained:
Format in all cases: in vivo
soybean (Glycine max) [1] = test: Test Example 2 upland soil treatment, crop phytotoxicity; settings: Table 5, upland soil treatment, index 0-5
Experimental: (§1) A plastic pot of 130 cm^2 was filled with upland soil. Subsequently, weed seeds of Setaria viridis, Digitaria adscendens, Chenopodium album and Stellaria media, and crop seeds of soybean (Glycine max) and wheat (Triticum aestivum), were sowed and covered with soil of about 1 cm thickness. On the next day after the sowing, the wettable powder prepared in Formulation Example 1 was diluted with water such that the amount of the active ingredient became 1 kg per hectare, and then uniformly applied to the soil surface. On the 21st day after the application, observation and evaluation were carried out according to the aforesaid criteria.
(§2) Herbicidal activity was evaluated based on the following criteria.
(§3) • 5: herbicidal effect of not less than 90%, or phytotoxicity of 90% or more • 4: herbicidal effect of not less than 70% and less than 90%, or phytotoxicity of 70% or more and less than 90% • 3: herbicidal effect of not less than 50% and less than 70%, or phytotoxicity of 50% or more and less than 70% • 2: herbicidal effect of not less than 30% and less than 50%, or phytotoxicity of 30% or more and less than 50% • 1: herbicidal effect of not less than 10% and less than 30%, or phytotoxicity of 10% or more and less than 30% • 0: herbicidal effect of not less than 0% and less than 10%, or phytotoxicity of 0% or more and less than 10%

[2] = system: wheat (Triticum aestivum); test: as above; settings: Table 5, upland soil treatment, index 0-5
Experimental: as §1, §2, §3

soybean (Glycine max) [3] = test: Test Example 1 upland field foliage treatment, crop phytotoxicity; settings: Table 4, upland field foliage treatment, index 0-5
Method in brief: (§4)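 Post-emergence foliar spray of water-diluted wettable powder at 1 kg active ingredient per hectare, applied 14 days after sowing in upland soil. Weed control or crop phytotoxicity rated 21 days later on a 0–5 scale (5: ≥90%, 0: <10%).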

[4] = system: wheat (Triticum aestivum); test: as above; settings: Table 4, upland field foliage treatment, index 0-5
Method in brief: as §4

Setaria viridis [5] = test: Test Example 1 upland field foliage treatment; settings: Table 4, upland field foliage treatment, index 0-5
Method in brief: as §4

Chenopodium album [6] = test: Test Example 1 upland field foliage treatment; settings: Table 4, upland field foliage treatment, index 0-5
Method in brief: as §4

Stellaria media [7] = test: Test Example 1 upland field foliage treatment; settings: Table 4, upland field foliage treatment, index 0-5
Method in brief: as §4

Digitaria adscendens [8] = test: Test Example 1 upland field foliage treatment; settings: Table 4, upland field foliage treatment, index 0-5
Method in brief: as §4

Setaria viridis [9] = test: Test Example 2 upland soil treatment; settings: Table 5, upland soil treatment, index 0-5
Experimental: as §1, §2, §3

Chenopodium album [10] = test: Test Example 2 upland soil treatment; settings: Table 5, upland soil treatment, index 0-5
Experimental: as §1, §2, §3

Stellaria media [11] = test: Test Example 2 upland soil treatment; settings: Table 5, upland soil treatment, index 0-5
Experimental: as §1, §2, §3

Digitaria adscendens [12] = test: Test Example 2 upland soil treatment; settings: Table 5, upland soil treatment, index 0-5
Experimental: as §1, §2, §3

| Compound | Herbicidal activity (phytotoxicity) GM: Soybean (Glycine max) (soybean (Glycine max) [1]) | Herbicidal activity (phytotoxicity) TA: Wheat (Triticum aestivum) [2] | Herbicidal activity (phytotoxicity) GM: Soybean (Glycine max) (soybean (Glycine max) [3]) | Herbicidal activity (phytotoxicity) TA: Wheat (Triticum aestivum) [4] | Herbicidal activity SV: Setaria viridis (Setaria viridis [5]) | Herbicidal activity CA: Chenopodium album (Chenopodium album [6]) | Herbicidal activity SM: Stellaria media (Stellaria media [7]) | Herbicidal activity DA: Digitaria adscendens (Digitaria adscendens [8]) | Herbicidal activity SV: Setaria viridis (Setaria viridis [9]) | Herbicidal activity CA: Chenopodium album (Chenopodium album [10]) | Herbicidal activity SM: Stellaria media (Stellaria media [11]) | Herbicidal activity DA: Digitaria adscendens (Digitaria adscendens [12]) |
| --- | --- | --- | --- | --- | --- | --- | --- | --- | --- | --- | --- | --- |
| CNC(=O)C(Cn1cc(C)c(-c2ccc(C)c(F)c2)n1)=NOC [Compound 74] | 1 (herbicidal effect of not less than 10% and less than 30%, or phytotoxicity of 10% or more and less than 30%) | 0 (herbicidal effect of not less than 0% and less than 10%, or phytotoxicity of 0% or more and less than 10%) | 0 (herbicidal effect of not less than 0% and less than 10%, or phytotoxicity of 0% or more and less than 10%) | 0 (herbicidal effect of not less than 0% and less than 10%, or phytotoxicity of 0% or more and less than 10%) | 5 (herbicidal effect of not less than 90%, or phytotoxicity of 90% or more) | 5 (herbicidal effect of not less than 90%, or phytotoxicity of 90% or more) | 5 (herbicidal effect of not less than 90%, or phytotoxicity of 90% or more) | 5 (herbicidal effect of not less than 90%, or phytotoxicity of 90% or more) | 4 (herbicidal effect of not less than 70% and less than 90%, or phytotoxicity of 70% or more and less than 90%) | 5 (herbicidal effect of not less than 90%, or phytotoxicity of 90% or more) | 5 (herbicidal effect of not less than 90%, or phytotoxicity of 90% or more) | 5 (herbicidal effect of not less than 90%, or phytotoxicity of 90% or more) |
| CNC(=O)C(Cn1cc(C)c(-c2ccc(F)c(C)c2)n1)=NOC [Compound 75] | 1 (herbicidal effect of not less than 10% and less than 30%, or phytotoxicity of 10% or more and less than 30%) | 0 (herbicidal effect of not less than 0% and less than 10%, or phytotoxicity of 0% or more and less than 10%) | 0 (herbicidal effect of not less than 0% and less than 10%, or phytotoxicity of 0% or more and less than 10%) | 0 (herbicidal effect of not less than 0% and less than 10%, or phytotoxicity of 0% or more and less than 10%) | 5 (herbicidal effect of not less than 90%, or phytotoxicity of 90% or more) | 5 (herbicidal effect of not less than 90%, or phytotoxicity of 90% or more) | 5 (herbicidal effect of not less than 90%, or phytotoxicity of 90% or more) | 5 (herbicidal effect of not less than 90%, or phytotoxicity of 90% or more) | 4 (herbicidal effect of not less than 70% and less than 90%, or phytotoxicity of 70% or more and less than 90%) | 5 (herbicidal effect of not less than 90%, or phytotoxicity of 90% or more) | 5 (herbicidal effect of not less than 90%, or phytotoxicity of 90% or more) | 4 (herbicidal effect of not less than 70% and less than 90%, or phytotoxicity of 70% or more and less than 90%) |
| CNC(=O)C(Cn1cc(C)c(-c2ccc(F)cc2Cl)n1)=NOC [Compound 82] | 0 (herbicidal effect of not less than 0% and less than 10%, or phytotoxicity of 0% or more and less than 10%) | 0 (herbicidal effect of not less than 0% and less than 10%, or phytotoxicity of 0% or more and less than 10%) | 0 (herbicidal effect of not less than 0% and less than 10%, or phytotoxicity of 0% or more and less than 10%) | 0 (herbicidal effect of not less than 0% and less than 10%, or phytotoxicity of 0% or more and less than 10%) | 3 (herbicidal effect of not less than 50% and less than 70%, or phytotoxicity of 50% or more and less than 70%) | 4 (herbicidal effect of not less than 70% and less than 90%, or phytotoxicity of 70% or more and less than 90%) | 4 (herbicidal effect of not less than 70% and less than 90%, or phytotoxicity of 70% or more and less than 90%) | 5 (herbicidal effect of not less than 90%, or phytotoxicity of 90% or more) | 4 (herbicidal effect of not less than 70% and less than 90%, or phytotoxicity of 70% or more and less than 90%) | 4 (herbicidal effect of not less than 70% and less than 90%, or phytotoxicity of 70% or more and less than 90%) | 5 (herbicidal effect of not less than 90%, or phytotoxicity of 90% or more) | 5 (herbicidal effect of not less than 90%, or phytotoxicity of 90% or more) |
| CNC(=O)C(Cn1cc(C)c(-c2ccc(F)c(Br)c2)n1)=NOC [Compound 83] | 0 (herbicidal effect of not less than 0% and less than 10%, or phytotoxicity of 0% or more and less than 10%) | 0 (herbicidal effect of not less than 0% and less than 10%, or phytotoxicity of 0% or more and less than 10%) | 0 (herbicidal effect of not less than 0% and less than 10%, or phytotoxicity of 0% or more and less than 10%) | 0 (herbicidal effect of not less than 0% and less than 10%, or phytotoxicity of 0% or more and less than 10%) | 3 (herbicidal effect of not less than 50% and less than 70%, or phytotoxicity of 50% or more and less than 70%) | 4 (herbicidal effect of not less than 70% and less than 90%, or phytotoxicity of 70% or more and less than 90%) | 4 (herbicidal effect of not less than 70% and less than 90%, or phytotoxicity of 70% or more and less than 90%) | 5 (herbicidal effect of not less than 90%, or phytotoxicity of 90% or more) | 5 (herbicidal effect of not less than 90%, or phytotoxicity of 90% or more) | 5 (herbicidal effect of not less than 90%, or phytotoxicity of 90% or more) | 5 (herbicidal effect of not less than 90%, or phytotoxicity of 90% or more) | 5 (herbicidal effect of not less than 90%, or phytotoxicity of 90% or more) |
| CNC(=O)C(Cn1cc(C)c(-c2cc(F)cc(C(F)(F)F)c2)n1)=NOC [Compound 88] | 0 (herbicidal effect of not less than 0% and less than 10%, or phytotoxicity of 0% or more and less than 10%) | 0 (herbicidal effect of not less than 0% and less than 10%, or phytotoxicity of 0% or more and less than 10%) | 0 (herbicidal effect of not less than 0% and less than 10%, or phytotoxicity of 0% or more and less than 10%) | 0 (herbicidal effect of not less than 0% and less than 10%, or phytotoxicity of 0% or more and less than 10%) | 4 (herbicidal effect of not less than 70% and less than 90%, or phytotoxicity of 70% or more and less than 90%) | 5 (herbicidal effect of not less than 90%, or phytotoxicity of 90% or more) | 5 (herbicidal effect of not less than 90%, or phytotoxicity of 90% or more) | 5 (herbicidal effect of not less than 90%, or phytotoxicity of 90% or more) | 4 (herbicidal effect of not less than 70% and less than 90%, or phytotoxicity of 70% or more and less than 90%) | 5 (herbicidal effect of not less than 90%, or phytotoxicity of 90% or more) | 5 (herbicidal effect of not less than 90%, or phytotoxicity of 90% or more) | 4 (herbicidal effect of not less than 70% and less than 90%, or phytotoxicity of 70% or more and less than 90%) |
